Reference: ChEMBL document CHEMBL1157415, “Isolation, structure elucidation, and synthesis of cytotoxic tryptanthrin analogues from Phaius mishmensis” (J Nat Prod, 2008)

Key:
Format in all cases: functional, cell-based
NCI-H460 = experiment: Cytotoxicity against human NCI-H460 cells
MCF7 = experiment: Cytotoxicity against human MCF7 cells
SF-268 = experiment: Cytotoxicity against human SF268 cells

O=C(CC1(O)c2ccccc2-n2c1nc1ccccc1c2=O)c1ccccc1 (centres undefined)
IC50 (NCI-H460; Homo sapiens, NCI-H460): > 50 µM
IC50 (MCF7; Homo sapiens, MCF7): > 50 µM
IC50 (SF-268; Homo sapiens, SF-268): > 50 µM

CCC(=O)C(C)C1(O)c2ccccc2-n2c1nc1ccccc1c2=O (centres undefined)
IC50 (NCI-H460; Homo sapiens, NCI-H460): 13.9 µM
IC50 (MCF7; Homo sapiens, MCF7): 15.8 µM
IC50 (SF-268; Homo sapiens, SF-268): 24.8 µM

CCCCCCCCC(=O)CC1(O)c2ccccc2-n2c1nc1ccccc1c2=O (centres undefined)
IC50 (NCI-H460; Homo sapiens, NCI-H460): 42.8 µM
IC50 (MCF7; Homo sapiens, MCF7): 40.5 µM
IC50 (SF-268; Homo sapiens, SF-268): > 50 µM

O=C1CCCC1C1(O)c2ccccc2-n2c1nc1ccccc1c2=O (stereo in doubt; 11)
IC50 (NCI-H460; nci-h460): 19.1 µM
IC50 (MCF7; mcf7): 19.7 µM
IC50 (SF-268; sf-268): 34.8 µM

O=C1CCCC1C1(O)c2ccccc2-n2c1nc1ccccc1c2=O (stereo in doubt; 12)
IC50 (NCI-H460; Homo sapiens, NCI-H460): 20.6 µM
IC50 (MCF7; Homo sapiens, MCF7): 20.7 µM
IC50 (SF-268; Homo sapiens, SF-268): 33.9 µM

O=C1/C(=c2\c3ccccc3n3c(=O)c4ccccc4nc23)Nc2ccccc21 [CANDIDINE]
IC50 (NCI-H460; Homo sapiens, NCI-H460): > 50 µM
IC50 (MCF7; Homo sapiens, MCF7): > 50 µM
IC50 (SF-268; Homo sapiens, SF-268): > 50 µM

COC(=O)C1(O)c2ccccc2N=C2C(=O)c3ccccc3N21 (centres undefined) [METHYLISATOID]
IC50 (NCI-H460; Homo sapiens, NCI-H460): > 50 µM
IC50 (MCF7; Homo sapiens, MCF7): > 50 µM
IC50 (SF-268; Homo sapiens, SF-268): > 50 µM

O=C1c2c(O)cccc2-n2c1nc1ccccc1c2=O [PHAITANTHRIN C]
IC50 (NCI-H460; Homo sapiens, NCI-H460): > 50 µM
IC50 (MCF7; Homo sapiens, MCF7): > 50 µM
IC50 (SF-268; Homo sapiens, SF-268): > 50 µM

O=C1OC[C@@]23Nc4ccccc4C(=O)N2c2ccccc2[C@@H]13 [PHAITANTHRIN D]
IC50 (NCI-H460; Homo sapiens, NCI-H460): > 50 µM
IC50 (MCF7; Homo sapiens, MCF7): > 50 µM
IC50 (SF-268; Homo sapiens, SF-268): > 50 µM

COC(=O)c1c2ccccc2n2c(=O)c3ccccc3[nH]c12 [PHAITANTHRIN E]
IC50 (NCI-H460; Homo sapiens, NCI-H460): > 50 µM
IC50 (MCF7; Homo sapiens, MCF7): > 50 µM
IC50 (SF-268; Homo sapiens, SF-268): > 50 µM

CC(=O)CC1(O)c2ccccc2-n2c1nc1ccccc1c2=O (centres undefined) [PHAITANTHRINS A]
IC50 (NCI-H460; Homo sapiens, NCI-H460): 31.4 µM
IC50 (MCF7; Homo sapiens, MCF7): 28.2 µM
IC50 (SF-268; Homo sapiens, SF-268): 45.4 µM

COC(=O)CC1(O)c2ccccc2-n2c1nc1ccccc1c2=O (centres undefined) [PHAITANTHRINS B]
IC50 (NCI-H460; Homo sapiens, NCI-H460): > 50 µM
IC50 (MCF7; Homo sapiens, MCF7): > 50 µM
IC50 (SF-268; Homo sapiens, SF-268): > 50 µM

O=C1c2ccccc2-n2c1nc1ccccc1c2=O [TRYPTANTHRIN]
IC50 (NCI-H460; Homo sapiens, NCI-H460): 9 µM
IC50 (MCF7; Homo sapiens, MCF7): 11.1 µM
IC50 (SF-268; Homo sapiens, SF-268): 24.4 µM
